Test results published in patent US8846873B2, “Antibodies directed to GPNMB and uses thereof” (Celldex Therapeutics, Inc., priority 2004, dated 2014).
Entries after “also recorded” stand apart in the source; their conditions may differ.

Tests used:
[1] = test system: SK-MEL-2 melanoma xenografts; test: Human SK-MEL-2 melanoma xenograft in athymic mice; type: in vivo
Description: (§1) Test Animals: Five- to 6-week old athymic mice (CD-1 nu/nu females), used for human tumor xenografts, were obtained from Harlan Laboratories (Indianapolis, Ind.). Animals were housed in specific pathogen-free conditions, according to the guidelines of the Association for Assessment and Accreditation of Laboratory Animal Care International (AAALAC International). Test animals were provided pelleted food and water ad libitum and kept in a room with conditioned ventilation (HVAC), temperature (22°±2° C.), relative humidity (55%±15%), and photoperiod (12 hr). All studies were carried out with approved institutional animal care and use protocols.
(§2) Human Melanoma Xenograft Models. The tumor inhibitory activity of the CR011-MMAE immunoconjugate was measured in an anti-tumor xenograft model using athymic mice, according to published methods (see Geran et al., Cancer Chemother. Rep. 3:1-104 (1972)). […] When tumors became established (10-20 days), the animals were pair-matched into groups (n=6 mice/group), and treatment was administered by intravenous injection (tail vein).
(§3) The SK-MEL-2 human melanoma (ATCC #HTB-68) was derived from a metastatic site (skin of thigh) of a person with malignant melanoma, and the SK-MEL-5 human melanoma (ATCC #HTB-70) was derived from a metastatic site (axillary lymph node) of a person with malignant melanoma (see Fogh et al., J. Natl. Cancer Inst. 59: 221-226 (1977)). Both cell lines were obtained from the American Type Culture Collection.
(§4) The effects of treatment were monitored by repetitive tumor measurements across 2 diameters with Vernier calipers; tumor size (in mg) was calculated using a standard formula, (W^2×L)/2, assuming a specific gravity of 1.0. Tumor size and body weights were assessed twice weekly. Mice were examined daily, however, and moribund animals were humanely euthanized if clinical indications of excessive pain or distress were noted (i.e., prostration, hunched posture, paralysis/paresis, distended abdomen, ulcerations, abscesses, seizures, and/or hemorrhages). Animals with tumors exceeding 2,000 mg were removed from the study and euthanized humanely.
No apparent or statistically significant anti-tumor effects were observed. […] In preliminary studies, tumor regression was complete and was not followed by regrowth of the tumor despite lengthy observation periods (up to 200 days).

[2] = test system: SK-MEL-5 melanoma xenografts; test: Human SK-MEL-5 melanoma xenograft in athymic mice; type: in vivo
Description: as §1, §2, §3, §4
Soon after the commencement of treatment with paclitaxel, however, significant tumor growth inhibition was observed (P≦0.039) at day 3 after treatment began, and this anti-tumor effect continued, producing 100% growth inhibition (stasis). The responses of SK-MEL-5-bearing test animals to vinblastine and paclitaxel were short-lived. After cessation of treatment at the maximally tolerated doses, tumors resumed rapid, progressive growth.

[3] = test system: SK-Mel-2 cells; test: Clonogenic assay after GPNMB siRNA transfection; type: cell-based, human
Description: SK-MeI-2 cells are transfected with 50 nM of control siRNA or siRNA targeting GPNMB. A. Cell lysates are prepared from the transfected SK-Mel-2 cells 2 and 4 days post-transfection and the expression of GPNMB (upper panel) or actin (lower panel) is determined by immunoblotting. Lane 1: Mock (oligofectamine) transfection. Lane 2: Control siRNA transfection. Lane 3: GPNMB siRNA transfection. B. Flow cytometry analysis of GPNMB expression 2 and 4 days after transfection. SK-Mel-2 cells are transfected with mock, control siRNA or GPNMB siRNA as indicted in the Materials and Methods. C. […] The surviving fraction is normalized to the untreated control and expressed as a percentage of control using GraphPad Prism graphing software. Each treatment is performed in triplicate. A representative experiment from two independent studies is shown.
Cells were plated in 96-well plates and allowed to recover overnight. […] The cells were then transferred into 6-well plates and allowed to form colonies. Colonies were stained with Giemsa stain (Sigma) and counted. The surviving cell fractions were calculated based upon the ratio of the treated sample and the untreated control. The results were expressed as a percentage of control using GraphPad Prism Version 4 software.
The amount of GPNMB expression was reduced for at least 7 days after transfection.

[4] = test system: TK-10 cells; test: Cell cycle analysis (BrdU / propidium iodide flow cytometry); type: cell-based, human; conditions: for % G1 / % G2/M / % S-phase / % Sub-G1: TK-10, 24 hour
Description: (§5) Briefly, cells were pulsed at the indicated times with 30 μM of bromodeoxyuridine (BrdU, Sigma) for 30 min, harvested, fixed and permeabilized in methanol. Nascent DNA synthesis was detected by anti-bromodeoxyuridine-FITC (BD Biosciences, San Jose, Calif.) staining. Total DNA content was detected using propidium iodide (PI, Sigma). For apoptosis analysis, cells were treated as above and labeled with Annexin V-FITC followed by propidium iodide exclusion using the Annexin V-FITC Apoptosis Detection kit I (BD PharMingen, San Diego, Calif.) according to the manufacturer's protocols. Flow cytometry (as described in the previous Example) was used to assay both cell cycle and apoptosis studies.
(§6) DNA synthesis and cell cycle progression were determined by flow cytometry (Table 52).

[5] = test system: SK-Mel-2 cells; test: as above; type: cell-based, human; conditions: for % G1 / % G2/M / % S-phase / % Sub-G1: SK-Mel-2, 24 hour
Description: as §5, §6

Substance: CR011-vcMMAE: anti-GPNMB antibody 1.15.1 coupled to monomethylauristatin E via protease-sensitive valine-citrulline linker
- complete regressors ([1]; 2 mg/kg cumulative dose, all dosing intervals): 13%
- proportions of complete regressions (animals) ([1]; 8 mg/kg cumulative dose, 5 groups of 6 animals): 28/30
- complete regressions ([1]; 8 mg/kg cumulative dose, all dosing intervals): 93%
- tumor response ([1]; CR011-ONC-1, CR011-vcMMAE 5 mg/kg/treatment i.v. q4d x4, components at doses identical to those in the immunoconjugate): Tumor growth inhibition and complete regression; also recorded: no discernible tumor was detected in all 6 of the test animals
- abnormal treatment effects on gross examination ([1]; Study N-386): no abnormal treatment effects
- time after treatment commenced to significant treatment effects ([1]; Study N-386, 20, 10, 5 or 2.5 mg/kg i.v. q4d x4, P≦0.014): 4 days
- anti-tumor effect ([1]; Study N-386, i.v., CR011-vcMMAE 20, 10, 5 or 2.5 mg/kg q4d x4, vinblastine […] q4d x4): tumors rapidly diminished in size for the majority of the test animals
- effects of treatment on body weight or weight gain ([1]; Study N-386, twice weekly body weight): no observable or statistically significant effects
- complete regressions ([1]; cumulative dose of 32 mg/kg, all dosing intervals): 100%
- schedule dependency of anti-tumor effects ([1]; dosing intervals 0, 1, 4, 8, 16 days): not schedule-dependent
- re-growth of tumors that regressed completely ([1]; observation period >200 days): did not re-grow
- complete regressions ([2]; 2.5 mg/kg/treatment): Complete regressions occurred
- time after treatment began to significant anti-tumor effects ([2]; 10 mg/kg/treatment, compared to PBS-treated controls): 10 days
- time after treatments began to significant anti-tumor effects ([2]; 10 mg/kg/treatment, compared to saline): 7 days
- anti-tumor effect ([2]; CR011-ONC-3, i.v., vs saline and PBS control groups): Substantial tumor growth inhibition, as well as tumor growth delay and complete regressions
- doses at which complete regressions occurred ([2]; i.v., q4d x4): > 2.5 mg/kg
- toxicity (mortality, body weight or weight gain) ([2]; treated tumor-bearing animals): no indication of toxicity
- sensitivity to growth-inhibitory activity following siRNA-mediated GPNMB knockdown [3]: less sensitive
- cycling of GPNMB-negative cells ([4]; 1000 ng/mL): did not affect the cycling
- % G1 ([4]; 100 ng/mL): 51.1%
- % G2/M ([4]; 100 ng/mL): 4.5%
- % S-phase ([4]; 100 ng/mL): 35.1%
- % Sub-G1 ([4]; 100 ng/mL): 0.7%
- % G1 ([4]; 1000 ng/mL): 52.6%
- % G2/M ([4]; 1000 ng/mL): 3.9%
- % S-phase ([4]; 1000 ng/mL): 34.2%
- % Sub-G1 ([4]; 1000 ng/mL): 0.8%
- decreased percentage of cells in G1 and S-phase compared to untreated cells ([5]; 1000 ng/mL, 24 hrs): 10%
- increased percentage of cells in G2/M compared to untreated cells ([5]; 1000 ng/mL, 24 hrs): 18.6%
- increased percentage of cells in G2/M ([5]; 1000 ng/mL, 48 hr): 24%
- reduced percentage of cells in G1 and S-phase ([5]; 1000 ng/mL, 48 hr): 11%
- % G1 ([5]; 100 ng/mL): 56.0%
- % G2/M ([5]; 100 ng/mL): 12.4%
- % S-phase ([5]; 100 ng/mL): 26.9%
- % Sub-G1 ([5]; 100 ng/mL): 0.2%
- % G1 ([5]; 1000 ng/mL): 43.7%
- % G2/M ([5]; 1000 ng/mL): 28.5%
- % S-phase ([5]; 1000 ng/mL): 20.0%
- % Sub-G1 ([5]; 1000 ng/mL): 1.1%
